Data reported in patent US11464770B2, “Anticancer pharmaceutical composition” (NATIONAL CANCER CENTER, priority 2016, dated 2022).
Where two headings read alike, the source gives them in different places.

Assays:
[1] = test system: blood cancer cell lines (e.g. HL-60, Jurkat, Raji, Ramos, Daudi, MOLT-4); assay: Cell based assay, cell viability (CellTiter-Glo), blood cancer cell lines; details: Homo sapiens
Method: (§1) Commercially available bladder cancer, prostate cancer, lung cancer, breast cancer, blood cancer, pancreatic cancer, colorectal cancer, brain cancer, neuroblastoma, melanoma, liver cancer, cervical carcinoma, ovarian cancer, renal cancer, and papilloma cell lines were each treated with trypsin-EDTA and cultured, followed by being seeded in each well of a 96 well plate. After 24 hours of treatment at constant temperature, the respective cells were treated with the candidate compound so that a final concentration became 0 to 2 μM. The treated cells were additionally cultured for 72 hours, and cell viability was measured by using an ATP detection method (CellTiter-Glo® Luminescent Cell Viability Assay, Promega).

[2] = test system: pancreatic cancer cell lines (e.g. MIA PaCa-2); assay: Cell based assay, cell viability (CellTiter-Glo), pancreatic cancer cell lines; details: Homo sapiens
Method: as §1

[3] = test system: neuroblastoma cell lines; assay: Cell based assay, cell viability (CellTiter-Glo), neuroblastoma cell lines; details: Homo sapiens; SH-SY5Y cell line
Method: as §1

[4] = test system: renal cancer cell lines; assay: Cell based assay, cell viability (CellTiter-Glo), renal cancer cell lines; details: Homo sapiens; ACHN cells
Method: as §1

[5] = MV4-11, blood cancer cell line MV-4-11, 72 hours, read-out: IC50, MV-4-11
[6] = blood cancer cell line Daudi, 72 hours, read-out: IC50, Daudi
[7] = blood cancer cell line HL-60, 72 hours, read-out: IC50, HL-60
[8] = blood cancer cell line Jurkat, 72 hours, read-out: IC50, Jurkat
[9] = blood cancer cell line MOLT-4, 72 hours, read-out: IC50, MOLT-4
[10] = blood cancer cell line Raji, 72 hours, read-out: IC50, Raji
[11] = blood cancer cell line Ramos (RA 1), 72 hours, read-out: IC50, Ramos (RA 1)
[12] = blood cancer cell line U-937, 72 hours, read-out: IC50, U-937
[13] = pancreatic cancer cell line AsPC-1, 72 hours, read-out: IC50, AsPC-1
[14] = pancreatic cancer cell line BxPC-3, 72 hours, read-out: IC50, BxPC-3
[15] = pancreatic cancer cell line CFPAC-1, 72 hours, read-out: IC50, CFPAC-1
[16] = pancreatic cancer cell line Capan-1, 72 hours, read-out: IC50, Capan-1
[17] = pancreatic cancer cell line Capan-2, 72 hours, read-out: IC50, Capan-2
[18] = pancreatic cancer cell line MIA PaCa-2, 72 hours, read-out: IC50, MIA PaCa-2
[19] = pancreatic cancer cell line PANC-1, 72 hours, read-out: IC50, PANC-1

## CC(=O)c1c(Sc2ccccc2)[nH]c2c(Br)ccc(Cl)c2c1=O [Compound 12, 3-acetyl-8-bromo-5-chloro-2-(phenylthio)quinolin-4(1H)-one]
[1]; [5]
  IC50: > 2000 nM
[1]; [6]
  IC50: > 2000 nM
[1]; [7]
  IC50: > 2000 nM
[1]; [8]
  IC50: > 2000 nM
[1]; [9]
  IC50: > 2000 nM
[1]; [10]
  IC50: > 2000 nM
[1]; [11]
  IC50: > 2000 nM
[1]; [12]
  IC50: > 2000 nM
[2]; [13]
  IC50: > 2000 nM
[2]; [14]
  IC50: > 2000 nM
[2]; [15]
  IC50: > 10000 nM
[2]; [16]
  IC50: > 2000 nM
[2]; [17]
  IC50: > 2000 nM
[2]; [18]
  IC50: > 2000 nM
[2]; [19]
  IC50: > 2000 nM
[3]
  IC50: > 2000 nM
[4]
  IC50: > 2000 nM

## CC(=O)c1c([S+]([O-])Cc2cccc(S(F)(F)(F)(F)F)c2)[nH]c2c(Br)ccc(Cl)c2c1=O (stereo not shown) [Compound 77, 3-acetyl-8-bromo-5-chloro-2-((3-(pentafluoro--sulfanyl)benzyl)sulfinyl)quinolin-4(1H)-one]
[1]; [5]
  IC50: > 2000 nM
[1]; [6]
  IC50: 1420 nM
[1]; [7]
  IC50: > 2000 nM
[1]; [8]
  IC50: 1120 nM
[1]; [9]
  IC50: 1350 nM
[1]; [10]
  IC50: 1330 nM
[1]; [11]
  IC50: > 2000 nM
[1]; [12]
  IC50: > 2000 nM
[2]; [13]
  IC50: > 2000 nM
[2]; [14]
  IC50: > 2000 nM
[2]; [15]
  IC50: > 10000 nM
[2]; [16]
  IC50: > 2000 nM
[2]; [17]
  IC50: > 2000 nM
[2]; [18]
  IC50: 1390 nM
[2]; [19]
  IC50: > 2000 nM
[3]
  IC50: > 2000 nM
[4]
  IC50: > 2000 nM

## CC(=O)c1c([S+]([O-])Cc2ccc(Cl)cc2)[nH]c2c(Br)ccc(Cl)c2c1=O (stereo not shown) [Compound 11, 3-acetyl-8-bromo-5-chloro-2-((4-chlorobenzyl)sulfinyl)quinolin-4(1H)-one]
[1]; [5]
  IC50: > 2000 nM
[1]; [6]
  IC50: > 2000 nM
[1]; [7]
  IC50: > 2000 nM
[1]; [8]
  IC50: > 2000 nM
[1]; [9]
  IC50: > 2000 nM
[1]; [10]
  IC50: > 2000 nM
[1]; [11]
  IC50: > 2000 nM
[1]; [12]
  IC50: > 2000 nM
[2]; [13]
  IC50: > 2000 nM
[2]; [14]
  IC50: > 2000 nM
[2]; [15]
  IC50: > 10000 nM
[2]; [16]
  IC50: > 2000 nM
[2]; [17]
  IC50: > 2000 nM
[2]; [18]
  IC50: > 2000 nM
[2]; [19]
  IC50: > 2000 nM
[3]
  IC50: > 2000 nM
[4]
  IC50: > 2000 nM

## CC(=O)c1c(SCc2cccc(I)c2)[nH]c2c(Br)ccc(Cl)c2c1=O [Compound 47, 3-acetyl-8-bromo-5-chloro-2-((3-iodobenzyl)thio)quinolin-4(1H)-one]
[1]; [5]
  IC50: > 2000 nM
[1]; [6]
  IC50: > 2000 nM
[1]; [7]
  IC50: > 2000 nM
[1]; [8]
  IC50: > 2000 nM
[1]; [9]
  IC50: > 2000 nM
[1]; [10]
  IC50: > 2000 nM
[1]; [11]
  IC50: > 2000 nM
[1]; [12]
  IC50: > 2000 nM
[2]; [13]
  IC50: > 2000 nM
[2]; [14]
  IC50: > 2000 nM
[2]; [15]
  IC50: > 10000 nM
[2]; [16]
  IC50: > 2000 nM
[2]; [17]
  IC50: > 2000 nM
[2]; [18]
  IC50: > 2000 nM
[2]; [19]
  IC50: > 2000 nM
[3]
  IC50: > 2000 nM
[4]
  IC50: > 2000 nM

## CCS(=O)(=O)n1c([S+](C)[O-])c(C(C)=O)c(=O)c2c(Cl)ccc(Br)c21 (stereo not shown) [Compound 39, 3-acetyl-8-bromo-5-chloro-1-(ethylsulfonyl)-2-(methylsulfinyl)quinolin-4(1H)-one]
[1]; [5]
  IC50: > 2000 nM
[1]; [6]
  IC50: > 2000 nM
[1]; [7]
  IC50: > 2000 nM
[1]; [8]
  IC50: > 2000 nM
[1]; [9]
  IC50: > 2000 nM
[1]; [10]
  IC50: > 2000 nM
[1]; [11]
  IC50: > 2000 nM
[1]; [12]
  IC50: > 2000 nM
[2]; [13]
  IC50: > 2000 nM
[2]; [14]
  IC50: > 2000 nM
[2]; [15]
  IC50: > 10000 nM
[2]; [16]
  IC50: > 2000 nM
[2]; [17]
  IC50: > 2000 nM
[2]; [18]
  IC50: > 2000 nM
[2]; [19]
  IC50: > 2000 nM
[3]
  IC50: > 2000 nM
[4]
  IC50: > 2000 nM

## CC(=O)c1c([S+]([O-])C(C)c2ccccc2)[nH]c2c(Br)ccc(Cl)c2c1=O (stereo not shown) [Compound 26, 3-acetyl-8-bromo-5-chloro-2-((1-phenylethyl)sulfinyl)quinolin-4(1H)-one]
[1]; [5]
  IC50: > 2000 nM
[1]; [6]
  IC50: > 2000 nM
[1]; [7]
  IC50: > 2000 nM
[1]; [8]
  IC50: 1790 nM
[1]; [9]
  IC50: 1740 nM
[1]; [10]
  IC50: > 2000 nM
[1]; [11]
  IC50: > 2000 nM
[1]; [12]
  IC50: > 2000 nM
[2]; [13]
  IC50: > 2000 nM
[2]; [14]
  IC50: > 2000 nM
[2]; [15]
  IC50: > 10000 nM
[2]; [16]
  IC50: > 2000 nM
[2]; [17]
  IC50: > 2000 nM
[2]; [18]
  IC50: > 2000 nM
[2]; [19]
  IC50: > 2000 nM
[3]
  IC50: > 2000 nM
[4]
  IC50: > 2000 nM

## CC(C)C(=O)c1c([S+]([O-])Cc2ccc(SC(F)(F)F)cc2)[nH]c2c(F)ccc(F)c2c1=O (stereo not shown) [Compound 85, 5,8-difluoro-3-isobutyryl-2-((4-((trifluoromethyl)thio)benzyl)sulfinyl)quinolin-4(1H)-one]
[1]; [5]
  IC50: > 2000 nM
[1]; [6]
  IC50: > 2000 nM
[1]; [7]
  IC50: > 2000 nM
[1]; [8]
  IC50: > 2000 nM
[1]; [9]
  IC50: > 2000 nM
[1]; [10]
  IC50: > 2000 nM
[1]; [11]
  IC50: > 2000 nM
[1]; [12]
  IC50: > 2000 nM
[2]; [13]
  IC50: > 2000 nM
[2]; [14]
  IC50: > 2000 nM
[2]; [15]
  IC50: > 10000 nM
[2]; [16]
  IC50: > 2000 nM
[2]; [17]
  IC50: > 2000 nM
[2]; [18]
  IC50: > 2000 nM
[2]; [19]
  IC50: > 2000 nM
[3]
  IC50: > 2000 nM
[4]
  IC50: > 2000 nM

## CSc1c(C(C)=O)c(=O)c2cc(F)ccc2n1C [Compound 7, 3-acetyl-6-fluoro-1-methyl-2-(methylthio)quinolin-4(1H)-one]
[1]; [5]
  IC50: > 2000 nM
[1]; [6]
  IC50: > 2000 nM
[1]; [7]
  IC50: > 2000 nM
[1]; [8]
  IC50: > 2000 nM
[1]; [9]
  IC50: > 2000 nM
[1]; [10]
  IC50: > 2000 nM
[1]; [11]
  IC50: > 2000 nM
[1]; [12]
  IC50: > 2000 nM
[2]; [13]
  IC50: > 2000 nM
[2]; [14]
  IC50: > 2000 nM
[2]; [15]
  IC50: > 10000 nM
[2]; [16]
  IC50: > 2000 nM
[2]; [17]
  IC50: > 2000 nM
[2]; [18]
  IC50: > 2000 nM
[2]; [19]
  IC50: > 2000 nM
[3]
  IC50: > 2000 nM
[4]
  IC50: > 2000 nM
